Values quoted from earlier work in patent publication US5189064A, “Treatment of cocaine addiction” (Matrix Technologies, Inc., priority 1990, dated 1993).
Where two headings read alike, the source gives them in different places. Square brackets hold non-standard residues; d marks the D form. Ends that are not written are not given here.

Columns and labels:
[Met]-enkephalin [1] = test system: [Met]-enkephalin
enkephalinase A = settings: in vitro, calf brain enzyme
carboxypeptidase A = molecular target: T1, carboxypeptidase A (Bos taurus, UniProt P00730)
T1 sequence (P00730 111-417 limits assumed): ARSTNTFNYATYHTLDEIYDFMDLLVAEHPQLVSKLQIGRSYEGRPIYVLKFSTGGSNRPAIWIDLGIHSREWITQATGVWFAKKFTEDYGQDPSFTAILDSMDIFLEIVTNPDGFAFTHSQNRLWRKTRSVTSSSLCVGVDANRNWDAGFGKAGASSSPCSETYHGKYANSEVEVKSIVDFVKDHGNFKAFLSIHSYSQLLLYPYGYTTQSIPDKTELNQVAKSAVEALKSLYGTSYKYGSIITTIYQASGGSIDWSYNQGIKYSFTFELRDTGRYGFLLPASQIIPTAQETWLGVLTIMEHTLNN

enkephalinases = settings: rat intestinal mucosa
enkephalinase B = settings: in vitro, calf brain enzyme
[Met]-enkephalin [2] = mice
healthy men = settings: tryptophan 50 mg/kg, tyrosine 100 mg/kg, eight healthy men
[3] = infusion, neurological patients with depression and insomnia
[4] = tryptophan injected into the bloodstream

In the case of `N[C@H](Cc1ccccc1)C(=O)O` [D-phenylalanine], the “CNS [Met]-enkephalin level” value ([Met]-enkephalin [1]; six days later) is listed as “remained high”, the “CNS increases of [Met]-enkephalin” value ([Met]-enkephalin [1]; within 90 minutes following DPA injection) is listed as “tripled” and the “inhibitory activity against enkephalinase A” value (enkephalinase A) is listed as “much less effective”. The “inhibition of carboxypeptidase A” value (carboxypeptidase A) was “inhibit carboxypeptidase A”, the endorphinase inhibited (endorphinase; cortex) was 18% and the endorphinase inhibited (endorphinase; hypothalamus) was 5%. For the same compound, the endorphinase inhibited (endorphinase; spinal cord) was 40%, the endorphinase inhibited (endorphinase; striatum) was 10% and the “degradation of (D-Ala2-D-Leu5) enkephalin (DAPLE) and Tyr-D-Ala-Gly-Phe (TAAGP)” value (enkephalinases) was “significantly reduced degradation”. The “inhibitory activity against enkephalinase B” value (enkephalinase B) was “much less effective”, the enkephalinase inhibited (enkephalinase; cortex) was 60% and the enkephalinase inhibited (enkephalinase; hypothalamus) was 80%. The enkephalinase inhibited (enkephalinase; spinal cord) was 84% and the enkephalinase inhibited (enkephalinase; striatum) was 78%.
For `O=C(O)CCc1ccccc1` [hydrocinnamic acid], the “[Met]-enkephalin in the brain” value ([Met]-enkephalin [2]) is listed as “increases of [Met]-enkephalin”.
For `N[C@@H](Cc1c[nH]c2ccccc12)C(=O)O` [tryptophan, L-tryptophan], the pain discriminability (healthy men) is given as “significantly reduced pain discriminibility”, the “elevations in cortical tryptophan levels” value [3] is given as “six” and the “level of serotonin in the brain elevated” value [4] is given as “two”. For the same compound, the “level of tryptophan in the brain elevated” value [4] was “nine”.
In the case of `N[C@@H](Cc1ccc(O)cc1)C(=O)O` [tyrosine, L-tyrosine], the pain discriminability (healthy men) is listed as “not”.
For [dF]-Tyr, the “inhibitory activity against enkephalinase A” value (enkephalinase A) is given as “markedly enhances the inhibitory potency” and the “inhibitory activity against enkephalinase B” value (enkephalinase B) is given as “markedly enhances the inhibitory potency”.
